Results taken from patent publication US7888363B2, “Viral polymerase inhibitors” (Boehringer Ingelheim International GmbH, priority 2003, dated 2011).

biological target: hepatitis C virus RNA dependant polymerase (NS5B) (Hepatitis C virus genotype 1b, UniProt P26663); experiment: Inhibition of NS5B RNA dependent RNA polymerase activity; assay type: biochemical; conditions: Table 1; HCV NS5B polymerase
Method: A suitable assay is described in the examples.
Inhibition of NS5B RNA Dependent RNA Polymerase Activity
The compounds of the invention were tested for inhibitory activity against the hepatitis C virus RNA dependant polymerase (NS5B), according to protocol described in WO 03/010141

Chain of hepatitis C virus RNA dependant polymerase (NS5B) (P26663 2420-3010): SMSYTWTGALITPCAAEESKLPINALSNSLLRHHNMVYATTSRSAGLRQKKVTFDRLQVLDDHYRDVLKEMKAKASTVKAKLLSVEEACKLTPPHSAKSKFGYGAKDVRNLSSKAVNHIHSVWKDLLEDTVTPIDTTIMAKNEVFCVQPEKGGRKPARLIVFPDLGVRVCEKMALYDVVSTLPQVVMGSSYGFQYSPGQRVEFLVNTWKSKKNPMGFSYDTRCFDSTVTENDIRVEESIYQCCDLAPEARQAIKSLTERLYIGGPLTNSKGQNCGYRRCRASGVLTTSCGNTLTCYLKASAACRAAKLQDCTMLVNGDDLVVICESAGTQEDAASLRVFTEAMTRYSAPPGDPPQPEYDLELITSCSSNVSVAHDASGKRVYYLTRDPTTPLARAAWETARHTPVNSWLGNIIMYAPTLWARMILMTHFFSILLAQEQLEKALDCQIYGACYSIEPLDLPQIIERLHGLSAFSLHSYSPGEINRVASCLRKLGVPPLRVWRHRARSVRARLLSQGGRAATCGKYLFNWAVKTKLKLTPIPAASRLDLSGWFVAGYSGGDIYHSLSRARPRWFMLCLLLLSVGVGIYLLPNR

Row | SMILES | IC50
1 | O=C(O)c1ccc2c(C3CCCC3)c(-c3ccccn3)n(CC(=O)N3CCCC3)c2c1 [Example 1086] | 200 to 1000 nM
2 | O=C(O)c1ccc2c(C3CCCC3)c(-c3ccccn3)n(CC(=O)N3CCCCC3)c2c1 [Example 1087] | 200 to 1000 nM
3 | O=C(Cn1c(-c2ccoc2)c(C2CCCCC2)c2ccc(C(=O)O)cc21)NC1CCCCC1 [Example 1088] | 200 to 1000 nM
4 | O=C(Cn1c(-c2ccoc2)c(C2CCCCC2)c2ccc(C(=O)O)cc21)NCC1CCCCC1 [Example 1089] | 200 to 1000 nM
5 | CN(CCO)C(=O)Cn1c(-c2ccoc2)c(C2CCCCC2)c2ccc(C(=O)O)cc21 [Example 1090] | < 200 nM
6 | CC(C)N(C(=O)Cn1c(-c2ccoc2)c(C2CCCCC2)c2ccc(C(=O)O)cc21)C1CCCCC1 [Example 1091] | 200 to 1000 nM
7 | CN(C(=O)Cn1c(-c2ccoc2)c(C2CCCCC2)c2ccc(C(=O)O)cc21)C1CCCCC1 [Example 1092] | < 200 nM
8 | CCN(C(=O)Cn1c(-c2ccoc2)c(C2CCCCC2)c2ccc(C(=O)O)cc21)C1CCCCC1 [Example 1093] | 200 to 1000 nM
9 | O=C(O)c1ccc2c(C3CCCCC3)c(-c3ccoc3)n(CC(=O)N3CCCC3)c2c1 [Example 1094] | < 200 nM
10 | O=C(O)c1ccc2c(C3CCCCC3)c(-c3ccoc3)n(CC(=O)N3CCN(c4ccccc4)CC3)c2c1 [Example 1095] | 200 to 1000 nM
11 | O=C(O)c1ccc2c(C3CCCCC3)c(-c3ccoc3)n(CC(=O)N3CCN(CCO)CC3)c2c1 [Example 1096] | < 200 nM
12 | O=C(O)c1ccc2c(C3CCCCC3)c(-c3ccoc3)n(CC(=O)N3CCOCC3)c2c1 [Example 1097] | < 200 nM
13 | O=C(O)c1ccc2c(C3CCCCC3)c(-c3ccoc3)n(CC(=O)N3CCCC(C(=O)O)C3)c2c1 (stereo not shown) [Example 1099] | < 200 nM
14 | O=C(O)c1ccc2c(C3CCCCC3)c(-c3ccoc3)n(CC(=O)N3CCC(O)CC3)c2c1 [Example 1100] | < 200 nM
15 | CC1CCN(C(=O)Cn2c(-c3ccoc3)c(C3CCCCC3)c3ccc(C(=O)O)cc32)CC1 [Example 1101] | 200 to 1000 nM
16 | O=C(O)c1ccc2c(C3CCCCC3)c(-c3ccoc3)n(CC(=O)N3CCC(CCO)CC3)c2c1 [Example 1102] | < 200 nM
17 | CN(CCc1ccccn1)C(=O)Cn1c(-c2ccoc2)c(C2CCCCC2)c2ccc(C(=O)O)cc21 [Example 1103] | < 200 nM
18 | CN1CCC(N(C)C(=O)Cn2c(-c3ccoc3)c(C3CCCCC3)c3ccc(C(=O)O)cc32)CC1 [Example 1104] | < 200 nM
19 | CN(C)c1ccc(NC(=O)Cn2c(-c3ccoc3)c(C3CCCCC3)c3ccc(C(=O)O)cc32)cc1 [Example 1105] | 200 to 1000 nM
20 | CC(C)NC(=O)Cn1c(-c2ccoc2)c(C2CCCCC2)c2ccc(C(=O)O)cc21 [Example 1106] | 200 to 1000 nM
21 | COCCNC(=O)Cn1c(-c2ccoc2)c(C2CCCCC2)c2ccc(C(=O)O)cc21 [Example 1107] | 200 to 1000 nM
22 | CC(C)N(C(=O)Cn1c(-c2ccoc2)c(C2CCCCC2)c2ccc(C(=O)O)cc21)C(C)C [Example 1108] | 200 to 1000 nM

Row | SMILES | IC50
23 | O=C(O)CN(Cc1ccccc1)C(=O)Cn1c(-c2ccoc2)c(C2CCCCC2)c2ccc(C(=O)O)cc21 [Example 1109] | 200 to 1000 nM
24 | CC(=O)NNC(=O)Cn1c(-c2ccoc2)c(C2CCCCC2)c2ccc(C(=O)O)cc21 [Example 1110] | < 200 nM
25 | CN(C)C(=O)Cn1c(-c2ccoc2)c(C2CCCCC2)c2ccc(C(=O)O)cc21 [Example 1111] | < 200 nM
26 | CN(C)CCN(C)C(=O)Cn1c(-c2ccoc2)c(C2CCCCC2)c2ccc(C(=O)O)cc21 [Example 1112] | < 200 nM
27 | O=C(Cn1c(-c2ccoc2)c(C2CCCCC2)c2ccc(C(=O)O)cc21)NCC1CCCO1 (stereo not shown) [Example 1113] | 200 to 1000 nM
28 | CN(Cc1cccnc1)C(=O)Cn1c(-c2ccoc2)c(C2CCCCC2)c2ccc(C(=O)O)cc21 [Example 1114] | 200 to 1000 nM
29 | Cc1ccccc1N(C)C(=O)Cn1c(-c2ccoc2)c(C2CCCCC2)c2ccc(C(=O)O)cc21 [Example 1115] | 1000 to 10000 nM
30 | O=C(O)c1ccc2c(C3CCCCC3)c(-c3ccoc3)n(CC(=O)N3CCC(N4CCCC4)CC3)c2c1 [Example 1116] | < 200 nM
31 | O=C(Cc1ccccc1)NNC(=O)Cn1c(-c2ccoc2)c(C2CCCCC2)c2ccc(C(=O)O)cc21 [Example 1117] | 200 to 1000 nM
32 | CC(C)N(C)C(=O)Cn1c(-c2ccoc2)c(C2CCCCC2)c2ccc(C(=O)O)cc21 [Example 1118] | < 200 nM
33 | CCC(NC(=O)Cn1c(-c2ccoc2)c(C2CCCCC2)c2ccc(C(=O)O)cc21)C(=O)O (stereo not shown) [Example 1119] | < 200 nM
34 | CCN1CCN(C(=O)Cn2c(-c3ccoc3)c(C3CCCCC3)c3ccc(C(=O)O)cc32)CC1 [Example 1120] | < 200 nM
35 | CN(C)C(=O)CN(C)C(=O)Cn1c(-c2ccoc2)c(C2CCCCC2)c2ccc(C(=O)O)cc21 [Example 1121] | < 200 nM
36 | CN(C)C(=O)[C@@H]1CCCN1C(=O)Cn1c(-c2ccoc2)c(C2CCCCC2)c2ccc(C(=O)O)cc21 [Example 1122] | < 200 nM
37 | O=C(O)c1ccc2c(C3CCCCC3)c(-c3ccoc3)n(CC(=O)N3CCC[C@@H]3C(=O)O)c2c1 [Example 1123] | 200 to 1000 nM
38 | COCCN(C)C(=O)Cn1c(-c2ccoc2)c(C2CCCCC2)c2ccc(C(=O)O)cc21 [Example 1124] | 200 to 1000 nM
39 | CC(C)N1CCN(C(=O)Cn2c(-c3ccoc3)c(C3CCCCC3)c3ccc(C(=O)O)cc32)CC1 [Example 1125] | < 200 nM
40 | COCCN1CCN(C(=O)Cn2c(-c3ccoc3)c(C3CCCCC3)c3ccc(C(=O)O)cc32)CC1 [Example 1126] | < 200 nM
41 | CS(=O)(=O)c1ccc(CNC(=O)Cn2c(-c3ccoc3)c(C3CCCCC3)c3ccc(C(=O)O)cc32)cc1 [Example 1127] | < 200 nM
42 | O=C(O)c1ccc2c(C3CCCCC3)c(-c3ccoc3)n(CC(=O)N3C[C@@H](O)C[C@H]3C(=O)O)c2c1 [Example 1128] | < 200 nM
43 | CC(C)[C@@H](C(=O)O)N(C)C(=O)Cn1c(-c2ccoc2)c(C2CCCCC2)c2ccc(C(=O)O)cc21 [Example 1129] | < 200 nM
44 | CN(C)C(=O)CN1CCN(C(=O)Cn2c(-c3ccoc3)c(C3CCCCC3)c3ccc(C(=O)O)cc32)CC1 [Example 1130] | < 200 nM

The next lines start with the values.

Row | IC50 | SMILES
45 | < 200 nM | CN(C)C1CCN(C(=O)Cn2c(-c3ccoc3)c(C3CCCCC3)c3ccc(C(=O)O)cc32)C1 (stereo not shown) [Example 1131]
46 | < 200 nM | CN(C)CC(=O)NNC(=O)Cn1c(-c2ccoc2)c(C2CCCCC2)c2ccc(C(=O)O)cc21 [Example 1132]
47 | 200 to 1000 nM | O=C(Cn1c(-c2ccc(Br)cn2)c(C2CCCCC2)c2ccc(C(=O)O)cc21)N[C@@H](Cc1ccc(O)cc1)C(=O)O [Example 1133]
48 | 200 to 1000 nM | CN1CCN(C(=O)Cn2c(-c3ccc(Br)cn3)c(C3CCCCC3)c3ccc(C(=O)O)cc32)CC1 [Example 1134]
49 | 200 to 1000 nM | O=C(O)c1ccc2c(C3CCCCC3)c(-c3ccc(Br)cn3)n(CC(=O)N3CCC(C(=O)O)CC3)c2c1 [Example 1135]
50 | 200 to 1000 nM | CN(C)C(=O)Cn1c(-c2ccc(Br)cn2)c(C2CCCCC2)c2ccc(C(=O)O)cc21 [Example 1136]
51 | 200 to 1000 nM | O=C(O)c1ccc2c(C3CCCCC3)c(-c3ccc(Br)cn3)n(CC(=O)N3CCC[C@H]3C(=O)O)c2c1 [Example 1137]
52 | 200 to 1000 nM | CN(CC(=O)O)C(=O)Cn1c(-c2ccc(Br)cn2)c(C2CCCCC2)c2ccc(C(=O)O)cc21 [Example 1138]
53 | < 200 nM | O=C(O)CN1CCN(C(=O)Cn2c(-c3ccc(Br)cn3)c(C3CCCCC3)c3ccc(C(=O)O)cc32)CC1 [Example 1139]
54 | 200 to 1000 nM | O=C(Cn1c(-c2ccc(Br)cn2)c(C2CCCCC2)c2ccc(C(=O)O)cc21)N[C@@H](Cc1c[nH]c2cc(O)ccc12)C(=O)O [Example 1140]
55 | 200 to 1000 nM | O=C(Cn1c(-c2ccc(Br)cn2)c(C2CCCCC2)c2ccc(C(=O)O)cc21)NNC(=O)NC[C@H]1CC[C@H](C(=O)O)CC1 [Example 1141]
56 | 200 to 1000 nM | CN(C)C(=O)Cn1c(-c2ccccn2)c(C2CCCCC2)c2ccc(C(=O)O)cc21 [Example 1142]
57 | 1000 to 10000 nM | CNC(=O)Cn1c(-c2ccccn2)c(C2CCCCC2)c2ccc(C(=O)O)cc21 [Example 1143]

same assay, conditions: Table 2; HCV NS5B polymerase

Row | IC50 | SMILES
58 | < 200 nM | O=C(NS(=O)(=O)c1ccccc1)c1ccc2c(C3CCCCC3)c(-c3ccoc3)n(CC(=O)N3CCOCC3)c2c1 [Example 2001]
59 | < 200 nM | CS(=O)(=O)NC(=O)c1ccc2c(C3CCCCC3)c(-c3ccoc3)n(CC(=O)N3CCOCC3)c2c1 [Example 2002]
60 | < 200 nM | O=C(NS(=O)(=O)Cc1ccccc1)c1ccc2c(C3CCCCC3)c(-c3ccoc3)n(CC(=O)N3CCOCC3)c2c1 [Example 2003]
61 | < 200 nM | O=C(NS(=O)(=O)c1ccc(Cl)s1)c1ccc2c(C3CCCCC3)c(-c3ccoc3)n(CC(=O)N3CCOCC3)c2c1 [Example 2004]
62 | < 200 nM | O=C(NS(=O)(=O)C(F)(F)F)c1ccc2c(C3CCCCC3)c(-c3ccoc3)n(CC(=O)N3CCOCC3)c2c1 [Example 2005]
63 | < 200 nM | COC(=O)c1ccccc1S(=O)(=O)NC(=O)c1ccc2c(C3CCCCC3)c(-c3ccoc3)n(CC(=O)N3CCOCC3)c2c1 [Example 2006]
64 | < 200 nM | O=C(NS(=O)(=O)c1ccc2ccccc2c1)c1ccc2c(C3CCCCC3)c(-c3ccoc3)n(CC(=O)N3CCOCC3)c2c1 [Example 2007]
65 | < 200 nM | O=C(NS(=O)(=O)c1ccc(Br)cc1)c1ccc2c(C3CCCCC3)c(-c3ccoc3)n(CC(=O)N3CCOCC3)c2c1 [Example 2008]
66 | < 200 nM | COc1ccc(S(=O)(=O)NC(=O)c2ccc3c(C4CCCCC4)c(-c4ccoc4)n(CC(=O)N4CCOCC4)c3c2)cc1 [Example 2009]
67 | < 200 nM | O=C(NS(=O)(=O)c1cccc(Cl)c1)c1ccc2c(C3CCCCC3)c(-c3ccoc3)n(CC(=O)N3CCOCC3)c2c1 [Example 2010]
68 | < 200 nM | O=C(NS(=O)(=O)c1ccccc1Br)c1ccc2c(C3CCCCC3)c(-c3ccoc3)n(CC(=O)N3CCOCC3)c2c1 [Example 2011]
69 | < 200 nM | O=C(NS(=O)(=O)c1ccccc1Cl)c1ccc2c(C3CCCCC3)c(-c3ccoc3)n(CC(=O)N3CCOCC3)c2c1 [Example 2012]
70 | < 200 nM | O=C(NS(=O)(=O)c1ccc(OC(F)(F)F)cc1)c1ccc2c(C3CCCCC3)c(-c3ccoc3)n(CC(=O)N3CCOCC3)c2c1 [Example 2013]
